Results: patent US8906925B2, “Pyrido[4,3-B]indoles containing rigid moieties” (Medivation Technologies, Inc., priority 2008, dated 2014)
Read-outs that look alike come from different tables or passages of the source.

Assays:
[1] = target: human dopamine D2L receptor (Homo sapiens, UniProt P14416); experiment: cAMP functional assay, dopamine D2L (CHO-K1, HTRF); format: cell-based; design: host or cells: CHO-K1 co-expressing mitochondrial apoaequorin and Gα16; details: for inhibition at 0.005 µM: antagonist concentration 5 nM; for inhibition at 0.05 µM: antagonist concentration 50 nM; for inhibition at 0.5 µM: antagonist concentration 500 nM; for inhibition at 5 µM: antagonist concentration 5000 nM; for inhibition at 15 µM: antagonist concentration 15000 nM
Chain of human dopamine D2L receptor (P14416 whole entry): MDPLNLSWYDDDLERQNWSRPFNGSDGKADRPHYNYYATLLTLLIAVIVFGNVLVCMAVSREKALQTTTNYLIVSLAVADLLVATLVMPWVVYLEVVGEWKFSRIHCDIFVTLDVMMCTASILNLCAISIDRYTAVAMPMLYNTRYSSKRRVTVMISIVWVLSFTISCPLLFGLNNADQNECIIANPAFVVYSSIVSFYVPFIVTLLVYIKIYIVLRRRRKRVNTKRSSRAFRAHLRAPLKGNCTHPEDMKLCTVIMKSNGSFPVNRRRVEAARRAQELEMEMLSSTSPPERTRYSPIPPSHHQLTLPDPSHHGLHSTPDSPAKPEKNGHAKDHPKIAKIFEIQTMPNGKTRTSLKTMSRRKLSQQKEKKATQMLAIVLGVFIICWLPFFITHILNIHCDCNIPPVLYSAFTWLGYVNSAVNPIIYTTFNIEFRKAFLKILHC
Excerpt: To study the functional activity of compounds of the invention on the human recombinant dopamine D2L with Aequorin, GTPγS and cAMP functional assays and on the human recombinant serotonin 5-HT2A receptor with Aequorin, CHO-K1 cell lines expressing D2L or 5-HT2A recombinant receptor, mitochondrial apoaequorin and Gα16 were used for the Aequorin assay. CHO-K1 cell line expressing the recombinant D2L receptor was used for the cAMP assay and was amplified to prepare membranes used for the GTPγS assay.
The test was performed in 96 well plates. For agonist testing, 12 μL of cells (2,500 cells/well) were mixed with 6 μL of increasing concentrations of test compound or reference agonist and 6 μL of Forskolin […] (Calbiochem, cat n^o 344270). For antagonist testing, 12 μL of cells (2,500 cells/well) were mixed with 6 μL of test compound or reference antagonist at increasing concentrations. After incubation of 10 min at room temperature, 6 μL of a mix of Forskolin […] final concentration and the reference agonist at a final concentration corresponding to the EC80 were added. The plates were then incubated for 30 min at room temperature.

[2] = tested on: Sprague Dawley rats; experiment: Subchronic PCP-induced social interaction deficits; format: in vivo, rat
Excerpt: Phencyclidine (PCP) administered to humans as well to experimental animals induces full-spectrum of schizophrenia symptoms, including negative symptoms and cognitive deficits. A major symptom of schizophrenia is considered to be social isolation/withdrawal as part of the cluster of negative symptoms. Subchronic treatment with PCP in rats leads to the development of clear signs of social withdrawal as measured by deficits in the interaction time with a cage intruder rat.
Male Sprague Dawley rats (˜150 g on arrival) from Harlan (Indiana) were used in this study. Upon receipt, rats were group housed in OPTI rats ventilated cages. Rats were housed in groups of 2-3/cage for the remainder of the study. During the period of acclimation, rats were examined on a regular basis, handled, and weighed to assure adequate health and suitability. Rats were maintained on a 12/12 light/dark cycle with the light on at 7:00 a.m. The room temperature was maintained between 20 and 23° C. with a relative humidity maintained between 30% and 70%. Chow and water were provided ad libitum for the duration of the study. Animals were randomly assigned across treatment groups and balanced by age. Animals were not disturbed between test days.
The following compounds were used. 1) Compound No. 88 or 90 (0.3, 1 and 3 mg/kg; p.o.) was dissolved in 3% Tween and PBS and administered 30 min prior to test; 2) PCP (2 mg/kg; s.c.) was dissolved in saline and administered twice daily for 5 days prior to test day; 3) Clozapine (2.5 mg/kg; i.p.) was dissolved in 5% PEG:5% Tween 80 in saline and administered 30 min. prior to test. All compounds were administered at a dose volume of 1 mL/kg.
For five days prior to test, rats were injected twice daily with either PCP (2 mg/kg; s.c) or saline (s.c). On day 6 and following a 30 min pretreatment with vehicle, clozapine or Compound No. 90, a pair of rats, unfamiliar to each other, receiving the same treatment were placed in a white plexiglas open field arena (24″×17″×8″) and allowed to interact with each other for 6 min. Social interactions (‘SI’) included: sniffing the other rat; grooming the other rat; climbing over or under or around the other rat; following the other rat; or exploring the ano-genital area of the other rat. Passive contact and aggressive contact were not considered a measure of social interaction. The time the rats spent interacting with each other during the 6 min test was recorded by a trained observer. The social interaction chambers were thoroughly cleaned between the different rats.
Data were analyzed by analysis of variance (ANOVA) followed by post-hoc analysis (e.g., Fischer, Dunnett) when appropriate. An effect was considered significant if p<0.05.

[3] = tested on: Sprague Dawley rats
Protocol: The two-trial object recognition paradigm developed by Ennaceur and Delacour in the rat was used as a model of episodic short term memory.
The experiments were carried out using 174-186 male Sprague Dawley rats (Centre d'Elevage R. Janvier, B. P. 55, 53940 Le Genest-Saint-Isle, F.). 143-146 rats met inclusion criteria described in the experimental procedure. In addition, 24 satellite animals were used for pharmacokinetic analysis. The rats (main study and pharmacokinetic study) weighed between 233 and 283 g (6-7 weeks old) at the beginning of the experiments. […] Rats were allowed to acclimate to environmental conditions for at least 5 days prior to experimentation. Rats were numbered by marking their tail with indelible markers.
Each solution was prepared fresh each day of dosing. […] No corrective factor is required. […] PEG200 was dissolved in water for injection. The volume of administration was 10 mL/kg body weight for the oral route of administration and 5 mL/kg body weight for intraperitoneal route of administration. Each solution was prepared fresh each day of dosing.
The experimental arena is a square wooden box (60×60×40 cm) painted dark blue, with 15×15 cm black painted squares under a clear plexiglass floor. The arena and the objects were cleaned using water between each trial in order to avoid odour trails left by rats. The arena was placed in a dark room illuminated only by halogen lamps oriented towards the ceiling and giving an uniform dim light in the box (around 60 lux). Animals to be tested were placed in the experimental room at least 30 min before testing.
Rats were submitted to two trials spaced by an intertrial interval of 24 h. During the first trial (acquisition trial, T1), rats were placed in the arena containing 2 identical objects and time required by each animal to complete 15 sec. of object exploration was determined with a cut-off time of 4 min. Exploration was considered to be directing the nose at a distance less than 2 cm from the object and/or touching the object. For the second trial (testing trial, T2), one of the objects presented in the first trial was replaced by an unknown object (novel object), rats were placed back in the arena for 3 min and exploration of each object was determined. For both T1 and T2, locomotor activity of rats was scored.
Using group numbers of 18, rats were randomized to constitute the following groups: 1) Vehicle (5% PEG200 in water) p.o.; 2) Compound No. 88 or 90 (0.03 mg/kg) p.o.; 3.
The following parameters were measured: 1) Time required to achieve 15 sec. of object exploration on T1 (sec.); 2) Locomotor activity on T1 (number of crossed lines); 3) Time spent in active exploration of the familiar object on T2 (sec.)=TF; 4) Time spent in active exploration of the novel object on T2 (sec.)=TN; 5) Locomotor activity on T2 (number of crossed lines).
All parameters were analysed using SAS software (version 8.2). Statistical tests were performed with an alpha level of 0.05.

[4] = antagonist concentration 150 nM
[5] = antagonist concentration 1500 nM
[6] = 0.03, 0.1, 0.3, 1, 3 and 10 mg/kg p.o.
[7] = 0.03, 0.1, 0.3, 1 and 3 mg/kg p.o.

| SMILES | inhibition at 0.005 µM [1] [%] | inhibition at […] ([1]; antagonist concentration 15 nM) [%] | inhibition at 0.05 µM [1] [%] | inhibition at […] [1, 4] [%] | inhibition at 0.5 µM [1] [%] | inhibition at […] [1, 5] [%] | inhibition at 5 µM [1] [%] | inhibition at 15 µM [1] [%] | memory performance (TN−TF and RI) compared to vehicle, ANOVA + Dunnett's test ([3]; 1 mg/kg p.o.) | further results |
| --- | --- | --- | --- | --- | --- | --- | --- | --- | --- | --- |
| C/C(=C\n1c2c(c3cc(Cl)ccc31)CN(C)CC2)c1ccc(F)cc1 [Compound 83, (E)-8-chloro-5-(2-(4-fluorophenyl)prop-1-enyl)-2,3,4,5-tetrahydro-2-methyl-1H-pyrido[4,3-b]indole] | 75.5 | 97.8 | 98.2 | 104 | 106 | 107 | 106 | 111 | – | – |
| C/C(=C\n1c2c(c3cc(C)ccc31)CN(C)CC2)c1ccncc1 [Compound 88, (E)-2,3,4,5-tetrahydro-2,8-dimethyl-5-(2-(pyridin-4-yl)prop-1-enyl)-1H-pyrido[4,3-b]indole] | – | – | – | – | – | – | – | – | reached the threshold of statistical significance | PCP-induced decrease of social interaction time ([2]; 0.3, 1 and 3 mg/kg p.o., 30 min prior to test): attenuated; memory performance (TN−TF and RI) compared to vehicle, ANOVA + Dunnett's test ([3]; 0.3 mg/kg p.o.): reached the threshold of statistical significance; memory performance (TN−TF and RI values) [3, 6]: improved; number of "good learners" (Δ≧5 sec.) [3, 6]: confirmed the cognitive enhancing activity; cognitive enhancing activity (delay of onset of natural forgetting) ([3]; single oral administration 0.03, 0.1, 0.3, 1, 3 and 10 mg/kg, 30 min before T1): displayed a cognitive enhancing activity |
| C/C(=C\n1c2c(c3cc(Cl)ccc31)CN(C)CC2)c1ccncc1 [Compound 90, (E)-8-chloro-2,3,4,5-tetrahydro-2-methyl-5-(2-(pyridin-4-yl)prop-1-enyl)-1H-pyrido[4,3-b]indole] | 84.1 | 91.7 | 94.7 | 94 | 93.7 | 100 | 100 | 102 | reached the threshold of statistical significance | PCP-induced decrease of social interaction ([2]; 1 mg/kg p.o., 30 min prior to test): fully reversed; sedation in the home cage during pretreatment time ([2]; 3 mg/kg p.o.): Mild sedation; deficits in social interaction time induced by chronic PCP ([2]; 0.3 and 3 mg/kg p.o., did not reach control levels (partial reversal)): significantly attenuated; memory performance (TN−TF and RI) compared to vehicle, ANOVA + Dunnett's test ([3]; 0.1 mg/kg p.o.): reached the threshold of statistical significance; memory performance (TN−TF and RI values) [3, 7]: improved; number of "good learners" (Δ≧5 sec.) [3, 7]: confirmed the cognitive enhancing activity; locomotor activity assessed during T1 and T2 ([3]; rat, in vivo, po, 3 mg/kg): no statistically significant effects |
